Experimental data reported in PubChem BioAssay (NCI).
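Briefly, cells in 96-well plates were exposed to five compound concentrations for 48 h, and endpoints were estimated by linear interpolation. Definition used: TGI = concentration required for complete inhibition of growth.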

How the values were obtained:
Assay in all cases: NCI anticancer screen, dose series, 48 h
SF-268 CNS = test system: SF-268 CNS
ACHN renal = test system: ACHN renal
DMS 273 small cell lung = test system: DMS 273 small cell lung
EKVX NSCLC = test system: EKVX NSCLC
RPMI-8226 leukemia = test system: RPMI-8226 leukemia
HCT-15 colon = test system: HCT-15 colon
RXF 393 renal = test system: RXF 393 renal
SK-OV-3 ovarian = test system: SK-OV-3 ovarian
COLO 205 colon = test system: COLO 205 colon
UACC-62 melanoma = test system: UACC-62 melanoma
OVCAR-5 ovarian = test system: OVCAR-5 ovarian
NCI-H226 lung = test system: NCI-H226 lung
LXFL 529 NSCLC = test system: LXFL 529 NSCLC
HOP-18 NSCLC = test system: HOP-18 NSCLC
SNB-19 CNS = test system: SNB-19 CNS
CCRF-CEM leukemia = test system: CCRF-CEM leukemia
SF-539 CNS = test system: SF-539 CNS
UO-31 renal = test system: UO-31 renal
SK-MEL-28 melanoma = test system: SK-MEL-28 melanoma
DLD-1 colon = test system: DLD-1 colon
MOLT-4 leukemia = test system: MOLT-4 leukemia
IGROV1 ovarian = test system: IGROV1 ovarian
SK-MEL-2 melanoma = test system: SK-MEL-2 melanoma
HT29 colon = test system: HT29 colon
M19-MEL melanoma = test system: M19-MEL melanoma
DMS 114 small cell lung = test system: DMS 114 small cell lung
A549 NSCLC = test system: A549 NSCLC
KM12 colon = test system: KM12 colon
OVCAR-8 ovarian = test system: OVCAR-8 ovarian
HL-60(TB) leukemia = test system: HL-60(TB) leukemia
HCC-2998 colon = test system: HCC-2998 colon
UACC-257 melanoma = test system: UACC-257 melanoma
TK-10 renal = test system: TK-10 renal
OVCAR-3 ovarian = test system: OVCAR-3 ovarian
SNB-75 CNS = test system: SNB-75 CNS
HOP-92 NSCLC = test system: HOP-92 NSCLC
MALME-3M melanoma = test system: MALME-3M melanoma
NCI-H460 lung = test system: NCI-H460 lung
SW-620 colon = test system: SW-620 colon
SK-MEL-5 melanoma = test system: SK-MEL-5 melanoma
SF-295 CNS = test system: SF-295 CNS
SNB-78 CNS = test system: SNB-78 CNS
U251 CNS = test system: U251 CNS
HOP-62 NSCLC = test system: HOP-62 NSCLC
NCI-H23 lung = test system: NCI-H23 lung
M14 melanoma = test system: M14 melanoma
SN12C renal = test system: SN12C renal
HCT-116 colon = test system: HCT-116 colon
A498 renal = test system: A498 renal
LOX IMVI melanoma = test system: LOX IMVI melanoma
SR leukemia = test system: SR leukemia
OVCAR-4 ovarian = test system: OVCAR-4 ovarian
KM20L2 colon = test system: KM20L2 colon
K-562 leukemia = test system: K-562 leukemia
MDA-MB-435 = test system: MDA-MB-435
MCF7 breast = test system: MCF7 breast
NCI/ADR-RES ovarian = test system: NCI/ADR-RES ovarian
BT-549 breast = test system: BT-549 breast
CAKI-1 renal = test system: CAKI-1 renal
MDA-N = test system: MDA-N
T-47D breast = test system: T-47D breast
NCI-H522 lung = test system: NCI-H522 lung
MDA-MB-231 breast = test system: MDA-MB-231 breast
DU-145 prostate = test system: DU-145 prostate
786-0 renal = test system: 786-0 renal
HS 578T breast = test system: HS 578T breast
PC-3 prostate = test system: PC-3 prostate

## Nc1nncc2c1ccn2C1OC(CO)C(O)C1O (stereo not drawn)
SF-268 CNS
  TGI: > 100 µM
ACHN renal
  TGI: > 100 µM
DMS 273 small cell lung
  TGI: > 100 µM
EKVX NSCLC
  TGI: > 100 µM
RPMI-8226 leukemia
  TGI: > 100 µM
HCT-15 colon
  TGI: > 100 µM
RXF 393 renal
  TGI: > 100 µM
SK-OV-3 ovarian
  TGI: > 100 µM
COLO 205 colon
  TGI: > 100 µM
UACC-62 melanoma
  TGI: > 100 µM
OVCAR-5 ovarian
  TGI: > 100 µM
NCI-H226 lung
  TGI: > 100 µM
LXFL 529 NSCLC
  TGI: > 100 µM
HOP-18 NSCLC
  TGI: > 100 µM
SNB-19 CNS
  TGI: > 100 µM
CCRF-CEM leukemia
  TGI: > 100 µM
SF-539 CNS
  TGI: > 100 µM
UO-31 renal
  TGI: > 100 µM
SK-MEL-28 melanoma
  TGI: > 100 µM
DLD-1 colon
  TGI: > 100 µM
MOLT-4 leukemia
  TGI: > 100 µM
IGROV1 ovarian
  TGI: > 100 µM
SK-MEL-2 melanoma
  TGI: > 100 µM
HT29 colon
  TGI: > 100 µM
M19-MEL melanoma
  TGI: > 100 µM
DMS 114 small cell lung
  TGI: > 100 µM
A549 NSCLC
  TGI: > 100 µM
KM12 colon
  TGI: > 100 µM
OVCAR-8 ovarian
  TGI: > 100 µM
HL-60(TB) leukemia
  TGI: > 100 µM
HCC-2998 colon
  TGI: > 100 µM
UACC-257 melanoma
  TGI: > 100 µM
TK-10 renal
  TGI: > 100 µM
OVCAR-3 ovarian
  TGI: > 100 µM
SNB-75 CNS
  TGI: > 100 µM
HOP-92 NSCLC
  TGI: > 100 µM
MALME-3M melanoma
  TGI: > 100 µM
NCI-H460 lung
  TGI: > 100 µM
SW-620 colon
  TGI: > 100 µM
SK-MEL-5 melanoma
  TGI: > 100 µM
SF-295 CNS
  TGI: > 100 µM
SNB-78 CNS
  TGI: > 100 µM
U251 CNS
  TGI: > 100 µM
HOP-62 NSCLC
  TGI: > 100 µM
NCI-H23 lung
  TGI: > 100 µM
M14 melanoma
  TGI: > 100 µM
SN12C renal
  TGI: > 100 µM
HCT-116 colon
  TGI: > 100 µM
A498 renal
  TGI: > 100 µM
LOX IMVI melanoma
  TGI: > 100 µM
SR leukemia
  TGI: > 100 µM
OVCAR-4 ovarian
  TGI: > 100 µM
KM20L2 colon
  TGI: > 100 µM
K-562 leukemia
  TGI: > 100 µM

## N/C(=N\N=C\c1c[nH]c2cc(C(F)(F)F)ccc2c1=O)NO
MDA-MB-435
  TGI: > 10 µM
SF-268 CNS
  TGI: > 10 µM
ACHN renal
  TGI: > 10 µM
MCF7 breast
  TGI: > 10 µM
NCI/ADR-RES ovarian
  TGI: > 10 µM
BT-549 breast
  TGI: > 10 µM
EKVX NSCLC
  TGI: > 10 µM
RPMI-8226 leukemia
  TGI: > 10 µM
HCT-15 colon
  TGI: > 10 µM
RXF 393 renal
  TGI: > 10 µM
CAKI-1 renal
  TGI: > 10 µM
SK-OV-3 ovarian
  TGI: > 10 µM
COLO 205 colon
  TGI: > 10 µM
UACC-62 melanoma
  TGI: > 10 µM
OVCAR-5 ovarian
  TGI: > 10 µM
NCI-H226 lung
  TGI: > 10 µM
SNB-19 CNS
  TGI: > 10 µM
CCRF-CEM leukemia
  TGI: > 10 µM
SF-539 CNS
  TGI: > 10 µM
UO-31 renal
  TGI: > 10 µM
MDA-N
  TGI: > 10 µM
T-47D breast
  TGI: > 10 µM
SK-MEL-28 melanoma
  TGI: > 10 µM
NCI-H522 lung
  TGI: > 10 µM
MOLT-4 leukemia
  TGI: > 10 µM
IGROV1 ovarian
  TGI: > 10 µM
SK-MEL-2 melanoma
  TGI: > 10 µM
HT29 colon
  TGI: > 10 µM
MDA-MB-231 breast
  TGI: > 10 µM
A549 NSCLC
  TGI: > 10 µM
KM12 colon
  TGI: > 10 µM
OVCAR-8 ovarian
  TGI: > 10 µM
HL-60(TB) leukemia
  TGI: > 10 µM
HCC-2998 colon
  TGI: > 10 µM
UACC-257 melanoma
  TGI: > 10 µM
TK-10 renal
  TGI: > 10 µM
OVCAR-3 ovarian
  TGI: > 10 µM
SNB-75 CNS
  TGI: 9.03 µM
HOP-92 NSCLC
  TGI: > 10 µM
MALME-3M melanoma
  TGI: > 10 µM
DU-145 prostate
  TGI: > 10 µM
NCI-H460 lung
  TGI: > 10 µM
SW-620 colon
  TGI: > 10 µM
SK-MEL-5 melanoma
  TGI: > 10 µM
SF-295 CNS
  TGI: > 10 µM
U251 CNS
  TGI: > 10 µM
HOP-62 NSCLC
  TGI: > 10 µM
786-0 renal
  TGI: > 10 µM
NCI-H23 lung
  TGI: > 10 µM
M14 melanoma
  TGI: > 10 µM
SN12C renal
  TGI: > 10 µM
HCT-116 colon
  TGI: > 10 µM
HS 578T breast
  TGI: > 10 µM
A498 renal
  TGI: > 10 µM
PC-3 prostate
  TGI: > 10 µM
LOX IMVI melanoma
  TGI: > 10 µM
SR leukemia
  TGI: > 10 µM
OVCAR-4 ovarian
  TGI: > 10 µM
K-562 leukemia
  TGI: > 10 µM
